# Results published in patent US10239839B2, “Compounds and formulations suitable for radical scavenging” (Solenne BV, priority 2006, dated 2019).
# Entries after “also recorded” stand apart in the source; their conditions may differ.
# Legend:
# [1] = Photo-oxidation of adamantylideneadamantane (ad=ad) to monitor ^1O2 formation, sodium lamp; conditions: bubbling air
# Source text: Excited fullerene, triplet+O2→fullerene+singlet oxygen (^1O2) The ^1O2 thus generated can react with a fullerene, giving an oxidized fullerene, or with other molecules that can react with ^1O2. One such molecule is adamantylideneadamantane (ad=ad), which is known to react with ^1O2, giving a stable 1,2-dioxetane, adamantylideneadamantane peroxide, as the product (J. H. Wieringa et al., Tetrahedron Letters 1972, 2, 169). This reaction is depicted in FIG. 11. This oxidation of ad=ad can be used to monitor the formation of ^1O2 by fullerenes or fullerene derivatives.
# In a first set of experiments, Phenyl-C61-Butyric-Acid-Methyl-Ester (PCBM,) and HG2-V1 were compared. […] After reaction overnight, the solvent was removed in vacuo and the residual material analyzed by ^1H NMR. […]
# In a second set of experiments, the above reaction was done at a high concentration (20 mg/mL) of ad=ad, this time using CCl4 as the solvent. […] Thus, samples from the reaction can be directly analyzed by ^1H NMR, when diluted with, e.g., CDCl3. […]
# Samples of 150-200 μL were taken from the reaction and diluted with ˜400 μL of CDCl3. […] Thus, the formation of adamantylideneadamantane peroxide was monitored over time, by following the appearance of the signal at 2.65 ppm. […]
# [2] = UV-Vis absorbance / optical density; format: physicochemical
# Procedure: All of these oils show an absorbance (A) at λ=570 nm of A570 less than 0.05 when measuring the neat oil against water, using 1 cm cuvettes as is general practice. The above absorbance profiles were measured by placing the neat oil in the 1 cm path length spectrometer cuvette. […] Olive oil typically has a darker appearance (and is thus more optically dense) than the other oils, and this can be seen in the absorption profile.
# In many instances, the concentration of fullerene, fullerene derivative, or fullerene-derived ketolactam desired due to considerations of optimal antioxidant efficacy is higher than can be conveniently measured by standard UV/vis spectroscopy. For concentrated solutions, dilution may be necessary to obtain a proper spectrum in the so-called visible area (λ=400-700 nm). If such concentrated solutions are measured without dilution, A570 may exceed a limit to obtain an accurate measurement, or may even exceed the maximum value that can be measured by the spectrometer. As an example, the spectrum of a concentrated solution of HG2-V2 in grapeseed oil (9.2 mg HG2-V2 dissolved in 3 mL), diluted×10 (v/v) with toluene, is shown in FIG. 8. Here, A570 is 0.24, meaning that without dilution it would give approximately A=2.4. Common UV-Vis spectrometers can usually measure up to A≈5, meaning that for this solution a large part of the spectrum (λ<510 nm) could not have been accurately measured without dilution.
# 400 mg HG2-V2 was added to 100 g of commercially available liquid grape seed oil and stirred with mechanical stirring for 4 hours at 25 deg. C. The HG2-V2 dissolved to give a clear, dark, amber colored solution of 0.4% (wt.) active in a simple solution. The optical density measured for this solution was over 2 AU/cm, and after 10/1 dilution with toluene was over 0.2.
# [3] = natural sunlight, chlorobenzene
# Procedure: [f] Two beakers were irradiated simultaneously by natural sunlight. Beaker 2 contained a solution of 300.5 mg of adad and 17.9 mg of PCBM in 100 mL of chlorobenzene. This solution was placed in a 250 mL beaker, wrapped with paper and Al-foil to prevent light going through the side of the beaker. […] The resulting solution was put in a brown-glass bottle for transport. The solvent was removed in vacuo and the resulting solid material was analyzed by ^1H NMR spectroscopy as described above.
# This solution was placed in a 250 mL beaker, wrapped with paper and Al-foil to prevent light going through the side of the beaker. […] The resulting solution was placed in a brown-glass bottle for transport. Approximately 10 mL of the reaction mixture was filtered and put aside. The remaining amount was concentrated in vacuo and the resulting solid material was analyzed by ^1H NMR spectroscopy as described above.
# This solution gave an absorbance of A=0.14 at 646 nm (against neat chlorobenzene).
# [4] = Tagmatarchis et al.; Hauke et al.; cited from earlier work
# erythema = experiment: Erythemal response to 3×MED full spectrum UV light after occluded patches; format: in vivo, human; conditions: 0.3% wt. in grape seed oil, 3×MED 24 hours after treatment, 25 subjects
# Procedure: [c] 25 human subjects, for which the minimal erythemal dose (MED) of full spectrum UV light (Solar Light Company's 601-300 Multiport Simulator, emitting light of a Xenon-Shortarc Lamp) had been determined, were treated with 6 occluded patches (on the back) with a formulation of HG2-V2 (0.3% wt.) in grape seed oil. 24 hours after patch treatment, the regions of application were exposed to 3×MED of the same light source. […] This provides evidence that the formulation provided an anti-erythemic effect, since erythema scores for 3×MED should range between 1-3.
# [5] = Percutaneous absorption study; format: in vitro ADME; conditions: 0.3% (wt.) in grape seed oil
# Procedure: [d] A percutaneous absorption study was conducted with 6 fresh viable skin samples from one donor, where 20 times recommended usage level (recommended usage level is 6-8 drops on the face) of a 0.3% (wt.) formulation of HG2-V2 in grape seed oil was used. Analysis by extraction of receptor fluid with toluene and analysis with HPLC-MS (using Buckyprep analytical column) was performed.
# [6] = Photo-oxidation of adamantylideneadamantane, UV light source; conditions: compared with α-tocopherol
# Procedure: [e] Two beakers were irradiated simultaneously with a UV light source (Philips HB172, fitted with 4 Philips Cleo 15 W luminescent tubes; UV-type 3). Beaker 1 contained a mixture of 301.0 mg of adamantylideneadamantane and 24.9 mg of α-tocopherol (Aldrich, >97%) in 100 mL of chlorobenzene. This solution was placed in a 250 mL beaker, which was wrapped with paper and Al-foil to prevent light going through the side of the beaker. The solution was stirred magnetically and irradiated 7 hours with a UV lamp (Philips HB172, fitted with 4 Philips Cleo 15 W luminescent tubes; UV-type 3), which was mounted horizontally directly above the beakers. The reaction mixture was concentrated in vacuo and the resulting solid material was analyzed by ^1H NMR spectroscopy as described above. […] The ratio of the integrals of unreacted adamantylideneadamantane (at 2.9 ppm) to adamantylideneadamantane peroxide was 90:10.
# Beaker 2 contained a mixture of 301.2 mg of adamantylideneadamantane and 25.0 mg of HG2-V2 in 100 mL of chlorobenzene. This solution was placed in a 250 mL beaker, which was wrapped with paper and Al-foil to prevent light going through the side of the beaker. […] The reaction mixture was concentrated in vacuo and the resulting solid material was analyzed by ^1H NMR spectroscopy as described above. […]
# [7] = Stability of solutions exposed to light and air; format: physicochemical; conditions: dissolved in grape seed oil, darker than parent oil, up to a year
# Source text: For example, it is known in the art that a dilute solution of C60 in toluene exposed to light and air will undergo approximately 10% or more degradation and loss of the C60 due to epoxidation and subsequent breakdown of the fullerene cage resulting from singlet oxygen generated via photoexcitation of the C60. This can be seen even visually since the decomposed C60 forms a blackish product which settles out of solution.
compound,measurement,setting,value
Phenyl-C61-Butyric-Acid-Methyl-Ester [PCBM],production of adamantylideneadamantane peroxide over time (ratio of peak at 2.65 ppm and signal at 2.88 ppm of ad=ad),"[1]; CCl4, ad=ad 20 mg/mL, 150 W sodium lamp, equal molarity",much faster
same,amount of adamantylideneadamantane peroxide formed (^1H NMR signal at 2.65 ppm),"[1]; chlorobenzene, ad=ad 1.5 mg/mL, 400 W sodium lamp, 16.5-17 h",much larger than that formed when using HG2-V1; also recorded: substantial amount
"CN(C)c1ccc2nc3ccc(=[N+](C)C)cc-3sc2c1 [MB, methylene blue]",average optical absorption between 400 nm and 700 nm compared to PCBM,[2],about 10 times
same,amount of ^1O2 compared to PCBM on an equal absorption and equimolar basis,[3],25 times
same,net generation of ^1O2 compared to PCBM on an equimolar basis,[3],250 times
(C59N)2,^1O2 quantum yields (in words),[4],reduced ^1O2 quantum yields
C59NH,^1O2 quantum yields (in words),[4],reduced ^1O2 quantum yields
"2a-Aza-1,2(2a)-homo-1,9-seco[5,6]fullerene-C60—Ih-1,9-dione,2a-[[4-docosyloxy)-3-methoxyphenyl]methyl] [HG2-V2]",average erythemic response on the erythema response scale (1 = first sign of erythema),erythema,0.77
same,percutaneous absorption,"[5]; 20 times recommended usage level, receptor fluid 8 hr and 24 hr",less than 0.004%
same,content in receptor fluid (HPLC-MS),[5]; 8 hr and 24 hr collection points,no HG2-V2 at or above analytical detection limit
same,A570,"[2]; 9.2 mg in 3 mL grapeseed oil, diluted ×10 (v/v) with toluene",0.24
same,A570 without dilution,"[2]; 9.2 mg in 3 mL grapeseed oil, extrapolated",~2.4
same,optical density,[2]; 0.4% (wt.) in grape seed oil,over 2 AU/cm
same,optical density after 10/1 dilution with toluene,[2]; 0.4% (wt.) in grape seed oil,over 0.2
same,"net generation of ^1O2 under UV irradiation, equal weight percentage",[6],less for HG2-V2 than α-tocopherol
same,decomposition on exposure to light and air,[7],reduced amount of decomposition products
